Converted amounts (≈) assume the structure as drawn.
How the values were obtained:
[1] = tested on: tumor; assay: Antitumor activity compared with fangchinoline, overall statement; type: cell-based; settings: tumor type not specified
[2] = tested on: Becap-37 (human breast cancer) cells; assay: MTT cell growth inhibition, solid tumor cells; type: cell-based; settings: Homo sapiens, Becap-37, 72 h, MTT; for IC50: read-out: IC50; for IC90: read-out: IC90
Method in brief: (§1)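 Seeding: 6000 cells/well, DMEM high glucose + 10% FBS, 24 h, 37 °C/5% CO2. Compound at graded concentrations, 72 h. Readout MTT (viable cells).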

[3] = tested on: U87-MG (malignant glioma) cells; assay: MTT cell growth inhibition, solid tumor cells; type: cell-based; settings: Homo sapiens, U-87 MG, U87-MG, 72 h, MTT; for IC50: read-out: IC50; for IC90: read-out: IC90
Method in brief: as §1

[4] = tested on: MG-63 (osteosarcoma) cells; assay: MTT cell growth inhibition, solid tumor cells; type: cell-based; settings: Homo sapiens, MG-63, 72 h, MTT; for IC50: read-out: IC50; for IC90: read-out: IC90
Method in brief: as §1

[5] = tested on: A549 (human lung cancer) cells; assay: MTT cell growth inhibition, solid tumor cells; type: cell-based; settings: for IC50 / IC90: Homo sapiens, A549, 72 h, MTT; for IC50: read-out: IC50; for IC90: read-out: IC90
Method in brief: as §1

[6] = tested on: Hep G2 (human liver cancer) cells; assay: MTT cell growth inhibition, solid tumor cells; type: cell-based; settings: Homo sapiens, HepG2, Hep G2, 72 h, MTT; for IC50: read-out: IC50; for IC90: read-out: IC90
Method in brief: as §1

[7] = tested on: RKO (human colon adenocarcinoma) cells; assay: MTT cell growth inhibition, solid tumor cells; type: cell-based; settings: Homo sapiens, RKO, 72 h, MTT; for IC50: read-out: IC50; for IC90: read-out: IC90
Method in brief: as §1

[8] = tested on: Hep-2 (laryngeal carcinoma) cells; assay: MTT cell growth inhibition, solid tumor cells; type: cell-based; settings: Homo sapiens, Hep-2, 72 h, MTT; for IC50: read-out: IC50; for IC90: read-out: IC90
Method in brief: as §1

[9] = tested on: MGC-803 (human gastric cancer) cells; assay: MTT cell growth inhibition, solid tumor cells; type: cell-based; settings: MGC-803, 72 h, MTT; for IC50: read-out: IC50; for IC90: read-out: IC90
Method in brief: as §1

[10] = tested on: Hela (human cervical cancer) cells; assay: MTT cell growth inhibition, solid tumor cells; type: cell-based; settings: Homo sapiens, Hela, 72 h, MTT; for IC50: read-out: IC50; for IC90: read-out: IC90
Method in brief: as §1

[11] = tested on: CaEs-17 (esophageal cancer) cells; assay: MTT cell growth inhibition, solid tumor cells; type: cell-based, human; settings: Homo sapiens, CaEs17, CaEs-17, 72 h, MTT; for IC50: read-out: IC50; for IC90: read-out: IC90
Method in brief: as §1

[12] = tested on: PANC-1 (pancreatic cancer) cells; assay: MTT cell growth inhibition, solid tumor cells; type: cell-based, human; settings: Homo sapiens, PANC-1, 72 h, MTT; for IC50: read-out: IC50; for IC90: read-out: IC90
Method in brief: as §1

[13] = tested on: PC-3 (prostate cancer) cells; assay: MTT cell growth inhibition, solid tumor cells; type: cell-based, human; settings: Homo sapiens, PC-3, 72 h, MTT; for IC50: read-out: IC50; for IC90: read-out: IC90
Method in brief: as §1

[14] = tested on: CNE (nasopharyngeal carcinoma) cells; assay: MTT cell growth inhibition, solid tumor cells; type: cell-based, human; settings: Homo sapiens, CNE, 72 h, MTT; for IC50: read-out: IC50; for IC90: read-out: IC90
Method in brief: as §1

[15] = tested on: SK-OV-3 (ovarian cancer) cells; assay: MTT cell growth inhibition, solid tumor cells; type: cell-based, human; settings: Homo sapiens, SK-OV-3, 72 h, MTT; for IC50: read-out: IC50; for IC90: read-out: IC90
Method in brief: as §1

[16] = tested on: NB4 (acute promyelocytic leukemia) cells; assay: MTT cell growth inhibition, leukemia cells; type: cell-based; settings: Homo sapiens, NB4, 72 h, MTT; for IC50: read-out: IC50; for IC90: read-out: IC90
Method in brief: (§2)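 MTT read-out of viable cells after 72 h compound exposure at 37° C., 5% CO2; 6000 cells/well in RPMI-1640 + 10% FBS, dosed one day after seeding over a range of concentrations.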

[17] = tested on: K562/ADR (K562adr, drug-resistant chronic myeloid leukemia) cells; assay: MTT cell growth inhibition, leukemia cells; type: cell-based; settings: Homo sapiens, K562/ADR, 72 h, MTT; for IC50: read-out: IC50; for IC90: read-out: IC90
Method in brief: as §2

[18] = tested on: RPMI 8226 (multiple myeloma) cells; assay: MTT cell growth inhibition, multiple myeloma cells; type: cell-based, human; settings: Homo sapiens, RPMI 8226, 72 h, MTT; for IC50: read-out: IC50; for IC90: read-out: IC90
Method in brief: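 Viable-cell readout by MTT after 72 h exposure (37° C, 5% CO2) of RPMI 8226 cells to a range of compound concentrations, added one day post-seeding. Cells were seeded at 6000 per well in RPMI-1640 containing 10% FBS.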

For `COc1ccc2cc1Oc1ccc(cc1)C[C@H]1c3cc(c(OC)cc3CCN1C)Oc1c(OC(=O)C3CC3)c(OC)cc3c1[C@H](C2)N(C)CC3` [BS-FC-304], the “antitumor activity compared with that of fangchinoline” value [1] was “significantly superior”, the IC50 [2] was 3.15 µg/mL (≈ 4.65 µM) and the IC90 [2] was 7.22 µg/mL (≈ 10.7 µM). For the same compound, the IC50 [3] was 1.68 µg/mL (≈ 2.48 µM), the IC90 [3] was 4.97 µg/mL (≈ 7.34 µM) and the IC50 [4] was 2.32 µg/mL (≈ 3.43 µM). It also gave an IC90 [4] of 5.72 µg/mL (≈ 8.45 µM), an IC50 [5] of 2.24 µg/mL (≈ 3.31 µM) and an IC90 [5] of 5.59 µg/mL (≈ 8.26 µM). The IC50 [6] was 2.49 µg/mL (≈ 3.68 µM), the IC90 [6] was 9.42 µg/mL (≈ 13.9 µM) and the IC50 [7] was 1.79 µg/mL (≈ 2.64 µM). The IC90 [7] was 3.45 µg/mL (≈ 5.1 µM), the IC50 [8] was 4.95 µg/mL (≈ 7.31 µM) and the IC90 [8] was 12.2 µg/mL (≈ 18.1 µM). It also gave an IC50 [9] of 1.87 µg/mL (≈ 2.76 µM), an IC90 [9] of 10.2 µg/mL (≈ 15.1 µM) and an IC50 [10] of 1.87 µg/mL (≈ 2.76 µM). It also gave an IC90 [10] of 4.65 µg/mL (≈ 6.87 µM), an IC50 [11] of 2.35 µg/mL (≈ 3.47 µM) and an IC90 [11] of 10.7 µg/mL (≈ 15.8 µM). It also gave an IC50 [12] of 3.73 µg/mL (≈ 5.51 µM), an IC90 [12] of 10.4 µg/mL (≈ 15.4 µM) and an IC50 [13] of 4.02 µg/mL (≈ 5.94 µM). For the same compound, the IC90 [13] was 10.5 µg/mL (≈ 15.5 µM), the IC50 [14] was 3.8 µg/mL (≈ 5.61 µM) and the IC90 [14] was 7.2 µg/mL (≈ 10.6 µM). It also gave an IC50 [15] of 6.45 µg/mL (≈ 9.53 µM), an IC90 [15] of 15.4 µg/mL (≈ 22.7 µM) and an IC50 [16] of 1.24 µg/mL (≈ 1.83 µM). It also gave an IC90 [16] of 3.99 µg/mL (≈ 5.9 µM), an IC50 [17] of 0.44 µg/mL (≈ 0.65 µM) and an IC90 [17] of 3 µg/mL (≈ 4.43 µM). For the same compound, the IC50 [18] was 0.16 µg/mL (≈ 0.236 µM) and the IC90 [18] was 0.98 µg/mL (≈ 1.45 µM).
With `COc1ccc2cc1Oc1ccc(cc1)C[C@H]1c3cc(c(OC)cc3CCN1C)Oc1c(OC(=O)c3ccc(N(C)C)cc3)c(OC)cc3c1[C@H](C2)N(C)CC3` [BS-FC-308] the “antitumor activity compared with that of fangchinoline” value [1] was “significantly superior”, the IC50 [2] was 1.03 µg/mL (≈ 1.36 µM) and the IC90 [2] was 1.95 µg/mL (≈ 2.58 µM). For the same compound, the IC50 [3] was 1.27 µg/mL (≈ 1.68 µM), the IC90 [3] was 3.75 µg/mL (≈ 4.96 µM) and the IC50 [4] was 1.3 µg/mL (≈ 1.72 µM). It also gave an IC90 [4] of 1.8 µg/mL (≈ 2.38 µM), an IC50 [5] of 0.99 µg/mL (≈ 1.31 µM) and an IC90 [5] of 3.16 µg/mL (≈ 4.18 µM). For the same compound, the “anti-A549 activity increase over fangchinoline” value ([5]; relative to fangchinoline, Table 2) was “more than 3 fold”, the IC50 [6] was 1.12 µg/mL (≈ 1.48 µM) and the IC90 [6] was 4.35 µg/mL (≈ 5.75 µM). For the same compound, the IC50 [7] was 0.71 µg/mL (≈ 0.939 µM), the IC90 [7] was 1.51 µg/mL (≈ 2 µM) and the IC50 [8] was 3.08 µg/mL (≈ 4.07 µM). The IC90 [8] was 6.05 µg/mL (≈ 8 µM), the IC50 [9] was 0.57 µg/mL (≈ 0.754 µM) and the IC90 [9] was 1.99 µg/mL (≈ 2.63 µM). For the same compound, the IC50 [10] was 0.89 µg/mL (≈ 1.18 µM), the IC90 [10] was 1.9 µg/mL (≈ 2.51 µM) and the IC50 [11] was 0.93 µg/mL (≈ 1.23 µM). It also gave an IC90 [11] of 3.92 µg/mL (≈ 5.19 µM), an IC50 [12] of 2.38 µg/mL (≈ 3.15 µM) and an IC90 [12] of 8.53 µg/mL (≈ 11.3 µM). The IC50 [13] was 2.4 µg/mL (≈ 3.17 µM), the IC90 [13] was 3.49 µg/mL (≈ 4.62 µM) and the IC50 [14] was 1.9 µg/mL (≈ 2.51 µM). The IC90 [14] was 3.6 µg/mL (≈ 4.76 µM), the IC50 [15] was 1.31 µg/mL (≈ 1.73 µM) and the IC90 [15] was 1.93 µg/mL (≈ 2.55 µM). The IC50 [16] was 0.37 µg/mL (≈ 0.489 µM), the IC90 [16] was 0.98 µg/mL (≈ 1.3 µM) and the IC50 [17] was 0.08 µg/mL (≈ 0.106 µM). It also gave an IC90 [17] of 0.47 µg/mL (≈ 0.622 µM), an IC50 [18] of 0.12 µg/mL (≈ 0.159 µM) and an IC90 [18] of 0.25 µg/mL (≈ 0.331 µM).

From patent publication US9328122B2, “7-substituted Hanfangichin B derivative, and preparation method and use thereof” (HANGZHOU BENSHENG PHARMACEUTICAL CO., LTD., priority 2012, dated 2016)
